Structures can show the parent of a compound that is named as a salt. Where two headings read alike, the source gives them in different places.
Tests used:
[1] = tested on: alcohol-induced gastric lesions; test: Alcohol-induced ulcer (gastric lesions) in the rat; format: in vivo; details: for inhibition at 6.25 mg/kg: dose 6.25 mg/kg os; for ED50: by mouth, inhibition of alcohol-induced gastric lesions, read-out: ED₅₀ mg/kg and confidence limits (p = 0.95); for ED50 / oral therapeutic indices (LD₅₀/ED₅₀) Alcohol-induced ulcer: rat; for oral therapeutic indices (LD₅₀/ED₅₀) Alcohol-induced ulcer: oral LD50 / ED50 in alcohol-induced ulcer; for R: potency ratio relative to Carbenoxolone (= 1.0), alcohol-induced lesions; for inhibition at 50 mg/kg: dose 50.0 mg/kg os; for inhibition at 100 mg/kg: dose 100.0 mg/kg os; for inhibition at 200 mg/kg: dose 200.0 mg/kg os; for inhibition at 12.5 mg/kg: dose 12.5 mg/kg os
Experimental: The gastric lesions were induced in male Sprague-Dawley rats weighing 120-140 g, which had been fasted for 48 h, by administering 1 ml/rat of 90% alcohol by mouth. One hour after administration of the damage-inducing agent, the animals were sacrifed in an excess of ether and the stomachs opened along the major curvature; the gastric lesions were measured in mm² and expressed as the percentage of inhibition compared with the controls. The substances under investigation, suspended in 0.5% Methocel, were administered by mouth 1 hour before the alcohol.

[2] = Acute toxicity in the rat; details: in vivo; for LD50 at 336 h: 14 days observation; for LD50 at 14 days: both sexes, Sprague-Dawley
Experimental: The acute toxicity of compounds IIa and IIb (M=Na) was evaluated in the rat after oral and intraperitoneal administration.
Each experimental group comprised 5 male and 5 female Sprague-Dawley rats. After being treated, the animals were kept under observation for 14 days and the dose that caused the death of 50% of the animals (LD₅₀) was calculated by the probit method (Finney D J. in "Probit Analysis", Cambridge University Press, 3rd Ed., Cambridge, 1971). The results shown in Table 4 indicate that, after intraperitoneal administration, the toxicity of both compounds is similar to that of the reference product.

[3] = tested on: Diclofenac-induced gastric ulcers; test: Diclofenac-induced ulcer (gastric lesions) in the rat; format: in vivo; details: for ED50: by mouth, inhibition of Diclofenac-induced gastric lesions, read-out: ED₅₀ and confidence limits (p = 0.95); for ED50 / oral therapeutic indices (LD₅₀/ED₅₀) Diclofenac-induced ulcer: rat; for % Inhibition: 1 h before 100 mg/kg Diclofenac, sacrifice 5 h after; for oral therapeutic indices (LD₅₀/ED₅₀) Diclofenac-induced ulcer: oral LD50 / ED50 in Diclofenac-induced ulcer; for R: potency ratio relative to Carbenoxolone (= 1.0), Diclofenac-induced ulcers
Experimental: Female Sprague-Dawley rats weighing 180-200 g that had been fasted for 24 h were used in this experiment. The gastric lesions were induced by a single oral dose of 100 mg/kg Diclofenac.
The animals were sacrificed 5 h after administration of the damage-inducing agent. The gastric lesions were measured in mm² and expressed as a percentage of inhibition.
The substances under investigation, suspended in 0.5% Methocel, were administered by mouth 1 h before the anti-inflammatory agent.

[4] = Antidiuretic activity: effects on urinary excretion in the rat; format: in vivo; details: for Electrolyte output, mEq/6h/rat K^+ / Electrolyte output, mEq/6h/rat Na^+ / Na^+/K^+ / Urine volume (0-6 h): urine collected 6 hours after fifth dose
Experimental: The effect of compounds IIa and IIb (M=Na) on urinary excretion was investigated in male Sprague-Dawley rats weighing 180-200 g. […] Carbenoxolone in a dose of 200 mg/kg was used as a reference substance. The animals were fasted for 18 h before the last dose. The urine was collected for 6 hours after administration of the fifth dose and its content of Na⁺ and K⁺ was measured.

[5] = Rattus norvegicus, 1 hour before 90% alcohol, lesions in mm² vs controls
[6] = ip, intraperitoneal, probit method, read-out: LD50 (confidence limits p = 0.95) mg/kg i.p
[7] = oral, 1000 mg/kg (LD10) = maximum dose that could be administered (2 doses of 500 mg/kg 1 h apart), read-out: LD50 (confidence limits p = 0.95) mg/kg p.o
[8] = 20 mg/kg os once a day for 5 days
[9] = 200 mg/kg os once a day for 5 days

Compound	inhibition at 6.25 mg/kg [1, 5] [%]	ED50 [1] [mg/kg]	oral therapeutic indices (LD₅₀/ED₅₀) Alcohol-induced ulcer [1]	R [1]	LD50 at 336 h [2, 6] [mg/kg]	LD50 at 336 h [2, 7] [mg/kg]	ED50 [3] [mg/kg]	% Inhibition ([3]; dose 3.125 mg/kg os) [%]	% Inhibition ([3]; dose 6.25 mg/kg os) [%]	oral therapeutic indices (LD₅₀/ED₅₀) Diclofenac-induced ulcer [3]	R [3]	Electrolyte output, mEq/6h/rat K^+ [4, 8] [mEq/6h/rat]	Electrolyte output, mEq/6h/rat Na^+ [4, 8] [mEq/6h/rat]	Na^+/K^+ [4, 8]	Urine volume (0-6 h) [4, 8] [mL]	inhibition at 50 mg/kg [1, 5] [%]	inhibition at 100 mg/kg [1, 5] [%]	inhibition at 200 mg/kg [1, 5] [%]	inhibition at 12.5 mg/kg [1, 5] [%]	% Inhibition ([3]; dose 12.5 mg/kg os) [%]	other results
C[C@H]1[C@H](C)CC[C@]2(COC(=O)c3ccccc3C(=O)O)CC[C@]3(C)C(=CC[C@@H]4[C@@]5(C)CC[C@H](OC(=O)c6ccccc6C(=O)O)C(C)(C)[C@@H]5CC[C@]43C)[C@H]12 [IIa (M = Na), disodium salt of the dihemiphthalate or urs-12-ene-3β,28-diol]	67.4	3.7	> 270	25.6	60	> 1000	7	8.9	28.3	> 143	16.3	0.14±0.01	0.21±0.01	1.5	3.0 ± 0.2	–	–	–	–	–	inhibition at 2 mg/kg ([1]; Rattus norvegicus, dose 2.0 mg/kg os, 1 hour before 90% alcohol, lesions in mm² vs controls): 16.1%; inhibition at 2.5 mg/kg ([1]; Rattus norvegicus, dose 2.5 mg/kg os, 1 hour before 90% alcohol, lesions in mm² vs controls): 22.1%; inhibition at 3.125 mg/kg ([1]; Rattus norvegicus, dose 3.125 mg/kg os, 1 hour before 90% alcohol, lesions in mm² vs controls): 65.2%; % Inhibition ([3]; dose 7.5 mg/kg os): 62.3%; % Inhibition ([3]; dose 9.0 mg/kg os): 67.9%
C[C@H]1[C@H](C)CC[C@]2(C(=O)O)CC[C@]3(C)C(=CC=C4[C@@]5(C)CC[C@H](OC(=O)CCC(=O)O)C(C)(C)[C@@H]5CC[C@]43C)[C@H]12 [3β-(carboxy-propionyloxy)-ursa-9(11),12-dien-28-oic acid]	–	106	–	0.8	–	–	–	–	–	–	–	–	–	–	–	28.4	45.6	76.3	–	–	inhibition at 400 mg/kg ([1]; Rattus norvegicus, dose 400.0 mg/kg os, 1 hour before 90% alcohol, lesions in mm² vs controls): 80.1%
CC1(C)[C@@H](OC(=O)CCC(=O)O)CC[C@]2(C)[C@H]3C(=O)C=C4[C@@H]5C[C@@](C)(C(=O)O)CC[C@]5(C)CC[C@@]4(C)[C@]3(C)CC[C@@H]12 [Carbenoxolone, sodium salt of the hemisuccinate of β-glycyrrhetic acid]	–	90.4	34	1.0	–	–	140	–	–	22	1.0	–	–	–	–	34.9	45	83	–	–	LD50 at 14 days ([2]; ip): 92 mg/kg; LD50 at 14 days ([2]; po): 3100 mg/kg; % Inhibition ([3]; dose 100.0 mg/kg os): 37.2%; % Inhibition ([3]; dose 150.0 mg/kg os): 45.6%; % Inhibition ([3]; dose 200.0 mg/kg os): 72.7%; % Inhibition ([3]; dose 400.0 mg/kg os): 90.9%; Electrolyte output, mEq/6h/rat K^+ [4, 9]: 0.12±0.01 mEq/6h/rat; Electrolyte output, mEq/6h/rat Na^+ [4, 9]: 0.10±0.01 mEq/6h/rat; Na^+/K^+ [4, 9]: 0.8; Urine volume (0-6 h) [4, 9]: 1.5 ± 0.2 mL; Na^+/K^+ ([4]; 200 mg/kg os once a day for 5 days, listed as carbenoxolone): 0.5; reducing diuresis ([4]; 200 mg/kg, versus controls): 67%; reduction in the excretion of Na⁺ ([4]; 200 mg/kg, versus controls): 72%
CC1(C)[C@@H](OC(=O)c2ccccc2C(=O)O)CC[C@]2(C)[C@H]3CC=C4[C@@H]5C[C@@](C)(COC(=O)c6ccccc6C(=O)O)CC[C@]5(C)CC[C@@]4(C)[C@]3(C)CC[C@@H]12 [18β-olean-12-ene-3β,3-0-diol di-0-hemiphthalate]	–	14.6	–	5.6	–	–	38.9	1.5	5.9	–	3.5	–	–	–	–	70.2	–	–	40.8	21.5	inhibition at 0.8 mg/kg ([1]; Rattus norvegicus, dose 0.8 mg/kg os, 1 hour before 90% alcohol, lesions in mm² vs controls): 12%; inhibition at 3.12 mg/kg ([1]; Rattus norvegicus, dose 3.12 mg/kg os, 1 hour before 90% alcohol, lesions in mm² vs controls): 32%; % Inhibition ([3]; dose 25.0 mg/kg os): 29.8%
C[C@H]1[C@H](C)CC[C@]2(COC(=O)c3ccccc3C(=O)O)CC[C@]3(C)C(=CC=C4[C@@]5(C)CC[C@H](OC(=O)c6ccccc6C(=O)O)C(C)(C)[C@@H]5CC[C@]43C)[C@H]12 [IIb (M = Na), disodium salt of the dihemiphthalate of ursa-9(11),12-diene-3β,28-diol]	10.7	16.8	> 60	5.5	75	> 1000	6.4	37.4	43.3	> 156	17.8	0.13±0.02	0.19±0.02	1.5	2.8 ± 0.3	–	–	–	32.5	72.0	inhibition at 16 mg/kg ([1]; Rattus norvegicus, dose 16.0 mg/kg os, 1 hour before 90% alcohol, lesions in mm² vs controls): 38.2%; inhibition at 25 mg/kg ([1]; Rattus norvegicus, dose 25.0 mg/kg os, 1 hour before 90% alcohol, lesions in mm² vs controls): 76.6%; % Inhibition ([3]; dose 25.0 mg/kg os): 73.3%

Source: patent EP0515159A1, “Ursane derivatives, their preparation and pharmaceutical formulations thereof” (IDB HOLDING S.p.A., priority 1991, dated 1992)
